Source: patent publication US11879137B2, “Treatment of type 1 diabetes and autoimmune diseases or disorders” (THE CHILDREN'S MEDICAL CENTER CORPORATION, priority 2017, dated 2024)

System: KL cells from bone marrow of NOD mice
Assay: Flow cytometry of murine KL cells modulated with PGE2 or dmPGE2
Assay type: cell-based
Settings: for CXCR4 among chemokine receptors on treated KL cells: chemokine receptor profile; for expression of PD-L2, PD-1, CD80 and CD40: vs unmodulated KL cells
Excerpt: FIGS. 19A-19G show the profile of murine KL cells. (FIG. 19A-19B) Representative flow cytometric analysis and quantitative bar graph of PD-L1 expression on Lineage^−c-kit^+ (KL) cells from NOD mice pre- and post-pharmacologic modulation with PGE2. (FIG. 19C-19D) Representative flow cytometric analysis and quantitative bar graph of CXCR4 expression on KL cells from NOD mice pre- and post-pharmacologic modulation with PGE2. (FIG. 19E) Quantitative bar graph of flow cytometric expression of positive and negative costimulatory molecules (CD40, CD80, CD86, PD-L1, PD-L2 and PD-1) and of select pro-inflammatory and anti-inflammatory cytokines (IFN-γ, IL-10, IL-4) in PGE2-modulated KL cells from NOD mice as compared to those modulated with a selected PGE2 clinical grade agonist (dmPGE2) and compared to unmodulated KL cells isolated from the bone marrow of normoglycemic NOD mice. (FIG. 19F) Flow cytometric expression of selected chemokine receptors (CXCR4, CCR2, CCR4, CCR5, CCR6, CCR7, CCR8, and CXCR3) in PGE2-modulated KL cells from NOD mice as compared to those modulated with a selected PGE2 clinical grade agonist (dmPGE2) and to unmodulated KL cells isolated from the bone marrow of normoglycemic NOD mice. (FIG. 19G) Quantitative bar graph of flow cytometric expression of chemokines receptors (CCR2, CCR4, CCR5, CCR6, CCR7, CCR8, CXCR3 and CXCR4) in PGE2-modulated KL cells from NOD mice as compared to those modulated with a selected PGE2 clinical grade agonist (dmPGE2) and compared to unmodulated KL cells isolated from the bone marrow of normoglycemic NOD mice. […] Abbreviations: KL, Lineage^−c-kit^+ cells.
Murine regulatory KL cell modulation. Murine bone marrow KL (c-Kit+Lineage-) cells were isolated using magnetic beads and MACS® separation columns (Miltenyi Biotec, San Diego, CA) and ˜2×10^5 cells were plated in a U-bottomed 96-well plate with 200 μl of stem cell medium, Stemspan-SFEMII (STEMCELL Technologies, Cambridge, MA) and PGE2 (PromoKine, PromoCell Gmbh, Germany) was added at day 0 and day 1, at a concentration of 10 μM.
Flow cytometric analysis and intracellular cytokine staining. Flow cytometry was performed to analyze surface expression markers of PGE2-modulated HSPCs and dmPGE2 (16, 16-dimethyl PGE2)-modulated HSPCs. Anti-mouse PD-L1, PD-L2, PD-1, CD40, CD80, CD86, CD4, CD8, Ly-6G (Gr-1), B220, CD3, CXCR4, CCR2, CCR4, CCR5, CCR6, CCR7, CCR8, CXCR3, IL-4, IL-10 and IFN-γ were purchased from BD Biosciences, eBioscience (San Diego, CA) and BioLegend. The following antibodies corresponded to isotype controls for the murine antibodies above: PE mouse IgG1, κ isotype ctrl, Armenian hamster IgG; APC mouse IgG2b, κ isotype ctrl, Armenian hamster IgG. Cells were subjected to FACS analysis and were run on a FACSCalibur™ (Becton Dickinson). Data were analyzed using FlowJo software version 8.7.3 (Treestar).
Murine PGE2-modulated HSPCs abrogate the autoimmune response in vitro. The feasibility of pharmacological modulation of PD-L1 with PGE2 was next explored in murine HSPCs. […] Moreover, the chemokine receptor profile of PGE2-modulated KL cells as compared to dmPGE2-modulated KL cells and unmodulated KL cells was explored in order to assess which chemokines are potentially involved in the homing of PGE2-modulated and dmPGE2-modulated KL cells. […] The immunoregulatory properties of PGE2-modulated KL cells was next explored in an autoimmune setting in vitro. PGE2-modulated KL cells generated from normoglycemic NOD mice were co-cultured at ratios of 1:1, 1:5 and 1:10 (KL cells to T cells) with CD11c+ DCs and BDC2.5 transgenic CD4+CD25− T cells in the presence of BDC2.5 peptide. […] Indeed, PGE2-modulated KL cells exerted a robust immunoregulatory effect even if added at low ratios (1:5 PGE2-treated KL cell to T cells). A less pronounced effect was observed when unmodulated KL were added to the assays. […] PGE2-modulated HSPCs are thus endowed with immunoregulatory properties and are capable of abrogating the autoimmune response in vitro. […]

| SMILES | CXCR4 among chemokine receptors on treated KL cells | expression of PD-L2, PD-1, CD80 and CD40 | CXCR4 expression on KL cells (FACS) | PD-L1 expression on KL cells (FACS, 10 μM day 0 and day 1) |
| --- | --- | --- | --- | --- |
| CCCCC(C)(C)[C@H](O)/C=C/[C@H]1[C@H](O)CC(=O)[C@@H]1C/C=C\CCCC(=O)O [16,16-dimethyl PGE2] | most expressed | similarly upregulated | – | – |
| CCCCC[C@H](O)/C=C/[C@H]1[C@H](O)CC(=O)[C@@H]1C/C=C\CCCC(=O)O [PGE2, prostaglandin E2] | most expressed | upregulation | markedly upregulated | upregulation |
